Several values for one entry are separate records, joined by “and”; a condition that tells them apart may be missing. Equal values may be shown once.
Columns and labels:
[1] = Functional assay to measure dose dependent changes in cell viability from drug treatment in Vero E6 miRFP670 cells (cotreated with P-gp inhibitor, CP100356) that are infected with Dengue virus type 2 New Guinea C. […] Cytotoxicity is reported via via analysis of DAPI count using high-content imager. The assay has been performed by KU Leuven.; type: toxicity, cell-based, Vero C1008; conditions: chlorocebus sabaeus, p-gp concentration 500 nM
[2] = Functional CPE-based assay to measure dose dependent changes in cell viability from drug treatment in Vero E6 miRFP670 cells (cotreated with P-gp inhibitor, CP100356). Cells are treated with antiviral candidates that have been serially diluted. Cytotoxicity is reported via analysis of MTS assays in uninfected cells. The assay has been performed by KU Leuven.; type: toxicity, Vero C1008; conditions: chlorocebus sabaeus, p-gp concentration 500 nM
[3] = Functional metabolic assay to measure dose dependent changes in cell viability from drug treatment in Vero E6/TMPRSS2 cells (cotreated with P-gp inhibitor, Elacridar). […] Cytotoxicity is reported via measuring absorbance and analysis of MTT/MTS assays in uninfected cells. The assay has been performed by Icahn School of Medicine at Mount Sinai.; type: toxicity, cell-based, VeroE6/TMPRSS2; conditions: chlorocebus sabaeus, p-gp concentration 2 uM
[4] = with CP100356 (P-gp inhibitor, concentration not stated)
[5] = Vero E6 miRFP670 cells, with CP100356 (P-gp inhibitor, concentration not stated)
[6] = Vero E6/TMPRSS2 cells, with Elacridar (P-gp inhibitor, concentration not stated)

SMILES | CC50 [1, 4] | CC50 [2, 5] | also measured
COc1ccccc1-c1nc2c(C(=O)Nc3ccc4c(c3)CNC4)cc(F)cc2[nH]1 | 15.6 µM | > 50 µM | 
CO[C@H]1C[C@H](n2ncc3c(C(=O)Nc4ccc5c(c4)CNC5)cc(Cl)cc32)C1 | 47.5 µM | 14 µM | 
O=C(NCCCn1ccnc1)[C@H](Nc1ccc2c(c1)CNC2)c1cc(Cl)cc(C2CC2)c1 | > 50 µM | 11.5 µM | 
CCCNC(=O)[C@H](Nc1ccc2c(c1)CNC2)c1cc(Cl)cc2[nH]ncc12 | 12.9 µM | > 50 µM | 
O=C(Nc1ccc2c(c1)CN[C@H]2CCO)c1cc(F)cc2[nH]ncc12 | 42.5 µM | > 50 µM | 
O=C(Nc1ccc2c(c1)CNC2)c1cc(F)c2[nH]ccc2c1 | > 50 µM | 48.1 µM | 
O=C(O)Cc1c[nH]c2cc(-c3cc(Cl)cc(NC(=O)OCc4ccccc4)c3)ccc12 | 18 µM | 32.1 µM | 
C=Cc1cc2c(cc1NC(=O)c1cc(F)cc3[nH]ncc13)CNC2 | > 50 µM | > 50 µM | 
O=C(Nc1cc(Cl)cc(-c2ccc3[nH]c(C(=O)O)cc3c2)c1)OCc1ccccc1 | 27.1 µM | 25.2 µM | CC50 ([1]; vero c1008): 14.3 µM
O=C1Nc2ccc(C(=O)Nc3ccc4c(c3)CNC4)cc2C1=O | 25.7 µM | > 50 µM | 
O=C(NCC(F)F)[C@H](Nc1ccc2c(c1)CNC2)c1cc(F)cc2[nH]ccc12 | 31.1 µM | > 50 µM | 
O=C(Nc1ccc2c(c1)CNC2)c1cc(Cl)cc2[nH]c(-c3cccc(F)c3)nc12 |  | > 50 µM | 
CC1=C(c2cc(NC(=O)c3cc(Cl)cc4[nH]ncc34)cc3c2CNC3)CCC1=O | > 50 µM | > 50 µM | 
O=C(Nc1ccc2c(c1)CNC2)c1cc(Cl)cc2cc[nH]c12 | 19.7 µM | 5.91 µM | 
CC1(C)NCc2cc(NC(=O)c3cc(F)cc4[nH]ncc34)ccc21 |  | > 50 µM | 
CN(c1ccc2c(c1)CNC2)[C@H](C(=O)NCC(F)F)c1cc(Cl)cc(C2CC2)c1 | 14.3 µM | 9.32 µM | 
O=C(Nc1ccc2c(c1)CN[C@H]2C[C@H](O)CO)c1cc(F)cc2[nH]ncc12 | 31.2 µM | > 50 µM | 
CC(=O)Nc1cc(Br)cc(C(=O)Nc2ccc3c(c2)CNC3)c1 | 0.561 µM | > 50 µM | 
O=C(Nc1ccc2c(c1)CNC2)c1cc(Cl)cc2[nH]c(-c3cc(C4CC4)[nH]n3)nc12 | 1.27 µM | 1.51 µM | 
COc1cccc(-c2nc3c(C(=O)Nc4ccc5c(c4)CNC5)cc(F)cc3[nH]2)c1 | 5.1 µM | 2.86 µM | 

SMILES | CC50 [1, 4] | CC50 [2, 5] | also measured
O=C(Nc1cc2c(cc1Br)CNC2)c1cc(F)cc2[nH]ncc12 | > 50 µM | 46.1 µM | 
CC(C)(C)OC(=O)N1Cc2ccc(N[C@H](C(=O)O)c3cc(Cl)cc4[nH]ncc34)cc2C1 | 28.9 µM | > 50 µM | 
O=C(Nc1ccc2c(c1)CNC2)c1cc(F)cc2[nH]c(-c3ccccc3)nc12 |  | 5.81 µM | CC50 ([1]; vero c1008): > 50 µM and 6.86 µM; CC50 ([2]; vero c1008): 4.83 µM
O=C(Nc1ccc2c(c1)CNC2)c1cc(Cl)cc2ccccc12 | 25.1 µM | 10.1 µM | 
O=C(Nc1ccc2c(c1)CNC2)c1cc(Cl)cc(N2CCCC2)c1 | 13.2 µM | 5.83 µM | 
O=C(NCC(F)F)[C@H](Nc1cc2c(cc1Br)CNC2)c1cc(Cl)cc(C2CC2)c1 | 6.39 µM | 5.82 µM | 
O=C(Nc1ccc2c(c1)CNC2)c1cc(Cl)cc2[nH]c(-c3ccc(F)cc3O)nc12 | 1.64 µM | 2.19 µM | 
O=C(Nc1ccc2c(c1)CNC2)c1cccc2c1[C@]1(CCNC1)C(=O)N2 | > 50 µM | > 50 µM | 
CNC(=O)[C@H](Nc1ccc2c(c1)CNC2)c1cc(Cl)cc2[nH]c(-c3ccccc3)nc12 | > 50 µM |  | CC50 ([2]; vero c1008): 9.01 µM and 21.4 µM
Cc1cnccc1-c1cc(NC(=O)c2cc(F)cc3[nH]ncc23)cc2c1CNC2 | > 50 µM | > 50 µM | 
COC(=O)c1cc(Br)cc2c(Cc3ccc(-c4nnn[nH]4)cc3)c[nH]c12 | 9.83 µM | 36.9 µM | 
O=C(Nc1ccc2c(c1)CNC2)c1cc(Cl)cc2c1cnn2C1CCC1 | 12.8 µM | 9.91 µM | 
CC(C)n1cc2c(C(=O)Nc3ccc4c(c3)CNC4)cc(Cl)cc2n1 | 22.7 µM | 11.8 µM | 
O=C(Nc1cc(Cl)cc(-c2cnn(Cc3ccc(C(=O)O)cc3)c2)c1)OCc1ccccc1 | 24 µM | 35.5 µM | 
Cn1cc2c(C(=O)Nc3ccc4c(c3)CNC4)cc(F)cc2n1 | > 50 µM | > 50 µM | 
O=C(Nc1cc2c(c(-c3c[nH]c(=O)c(F)c3)c1)CNC2)c1cc(F)cc2[nH]ncc12 | > 50 µM | > 50 µM | 
Cc1ncc(-c2cc(F)cc(C(=O)Nc3ccc4c(c3)CNC4)c2)s1 | > 50 µM | 23.1 µM | 
O=C(Nc1ccc2c(c1)CNC2)c1cccc2[nH]c(=O)[nH]c12 | 33.3 µM | > 50 µM | 
O=C(Nc1cc(Cl)cc(C(=O)Nc2ccc(-n3nn[nH]c3=O)cc2)c1)OCc1ccccc1 | 31.8 µM | > 50 µM | 
O=C(Nc1ccc2c(c1)CNC2)c1cc(Cl)cc2[nH]c(-c3ccccc3)nc12 |  | 2.09 µM | 

SMILES | CC50 [1, 4] | CC50 [2, 5] | also measured
c1ccc(-c2csc(C3CCN(Cc4c[nH]c5ccccc45)CC3)n2)cc1 | > 10 µM |  | CC10 ([3]; veroe6/tmprss2): 0.299 µM and 0.162 µM; CC50 ([3]; veroe6/tmprss2): > 10 µM and 20.1 µM
NCCCCc1ccc(NC(=O)c2cc(Cl)cc(NC(=O)OCc3ccccc3)c2)cc1 | 6.49 µM |  | CC50 [3, 6]: > 50 µM; CC10 ([3]; veroe6/tmprss2): > 50 µM
CCOC(=O)Nc1cc(Cl)cc(C(=O)Nc2cccc(CN)c2)c1 |  |  | CC50 [3, 6]: > 50 µM; CC10 ([3]; veroe6/tmprss2): > 50 µM
O=C(Nc1cc(Cl)cc(C(=O)Nc2ccc3c(c2)CNCCO3)c1)OCc1ccccc1 |  |  | CC50 [3, 6]: > 50 µM; CC10 ([3]; veroe6/tmprss2): < 0.023 µM
NCc1cccc(NC(=O)C[C@H](NC(=O)OCc2ccccc2)c2ccc(OCc3ccccc3)c(Br)c2)c1 |  |  | CC50 [3, 6]: 38.4 µM; CC10 ([3]; veroe6/tmprss2): 0.148 µM
NCc1cccc([C@@H]2C[C@H]2c2cc(Cl)cc(NC(=O)OCc3ccccc3)c2)c1 |  |  | CC50 [3, 6]: > 50 µM; CC10 ([3]; veroe6/tmprss2): > 50 µM
CC[C@H](Cc1nnn[nH]1)c1ccc(NC(=O)c2cc(Cl)cc(-n3cccc3)c2)cc1 |  |  | CC50 [3, 6]: > 50 µM; CC10 ([3]; veroe6/tmprss2): > 50 µM
CC[C@H](Cc1nnn[nH]1)c1ccc(NC(=O)c2cc(Cl)cc(C3CC3)c2)cc1 |  |  | CC50 [3, 6]: > 50 µM; CC10 ([3]; veroe6/tmprss2): > 50 µM
O=C(O)c1cc(Cl)ccc1S(=O)(=O)NC1CCN(c2nc(C3CC3)cc(C(F)(F)F)n2)CC1 |  |  | CC50 ([3]; veroe6/tmprss2): > 10 µM and 49.7 µM
O=C(Nc1cc(Cl)cc(C(=O)Nc2cccc([C@H]3CCNC3)c2)c1)OCc1ccccc1 |  |  | CC50 [3, 6]: 20.1 µM; CC10 ([3]; veroe6/tmprss2): 2.776 µM
CC(=O)Nc1cc(Cl)cc(C(=O)Nc2cccc(CN)c2)c1 |  |  | CC50 [3, 6]: > 50 µM; CC10 ([3]; veroe6/tmprss2): > 50 µM
CCCC(=O)Nc1cc(Cl)cc(C(=O)Nc2cccc(CN)c2)c1 |  |  | CC50 [3, 6]: > 50 µM; CC10 ([3]; veroe6/tmprss2): > 50 µM
CCOC(=O)[C@H]1[C@H](c2cc(Cl)cc(NC(=O)OCc3ccccc3)c2)[C@H]1c1cccc(-c2nnn[nH]2)c1 |  |  | CC50 [3, 6]: > 50 µM; CC10 ([3]; veroe6/tmprss2): > 50 µM
O=C(NCC1CCOCC1)[C@H](Nc1ccc2c(c1)CNC2)c1cc(Cl)cc2[nH]ncc12 |  |  | CC50 [3, 6]: > 50 µM; CC10 ([3]; veroe6/tmprss2): > 50 µM
O=C(Nc1cc(Cl)cc(S(=O)(=O)Nc2cccc(-c3nn[nH]n3)c2)c1)OCc1ccccc1 |  |  | CC50 [3, 6]: > 50 µM; CC10 ([3]; veroe6/tmprss2): > 50 µM
N#C[C@H](Nc1cccc(-c2nn[nH]n2)c1)c1cc(Cl)cc(NC(=O)OCc2ccccc2)c1 |  |  | CC50 [3, 6]: > 50 µM; CC10 ([3]; veroe6/tmprss2): > 50 µM
CC[C@H](Cc1nn[nH]n1)c1ccc(N[C@H](C(=O)NC)c2cc(Cl)cc(NC(=O)OCc3ccccc3)c2)cc1 |  |  | CC50 [3, 6]: > 50 µM; CC10 ([3]; veroe6/tmprss2): > 50 µM
N#Cc1cc(Cl)cc([C@H](C#N)Nc2ccc3c(c2)CNC3)c1 |  |  | CC50 [3, 6]: > 50 µM; CC10 ([3]; veroe6/tmprss2): > 50 µM
O=C(Nc1ccc2c(c1)CN[C@H]2C1CC1)c1cc(F)cc2[nH]ncc12 |  | > 50 µM | 
C[C@H]1NCc2cc(NC(=O)c3cc(F)cc4[nH]ncc34)ccc21 |  | > 50 µM | 

— ChEMBL document CHEMBL5661955, “ASAP - In vitro cytotoxicity” (2024)
